Reference: PMC5501099 (Malaria Journal, 2017)

Tests used:
Anopheles campestris = test: Ivermectin lethal concentration / survivorship, membrane blood feeding; type: in vivo; settings: An. campestris
Protocol: (§1) Powdered formulation of ivermectin compound was obtained from Sigma-Aldrich (St. Louis, USA). […] Control blood meals consisted of previously frozen DMSO diluted in PBS to match the ratio of DMSO and PBS fed to mosquitoes in the ivermectin-containing blood meals.
(§2) After blood feeding via a membrane feeder, unfed mosquitoes were removed and discarded. Blood-fed mosquitoes were held in 3.5-l plastic containers with access to 10% sucrose and kept in an incubator at 25 ± 1 °C and 70 ± 10% relative humidity, on a 12 h light:12 h dark photoperiod. Mosquito survivorship was monitored for 7 days, every 24 h dead mosquitoes were removed and recorded, and on day 7 all remaining mosquitoes were frozen and counted as alive.
(§3) A non-linear mixed effects model with probit analysis was used to calculate LC50, LC25 and LC5 values with Statistical Analysis Software (SAS Institute Inc, Cary, NC, USA) as described previously. Hazard ratios for mosquito mortality at day 7 post blood meal were calculated using Poisson regression analysis with STATA version 12.1 (StataCorp LLC, College Station, TX, USA). Oocyst and sporozoite prevalence (i.e. proportion of infected mosquitoes) was compared by Fishers Exact test. Oocyst intensity (i.e. number of oocysts per infected mosquito) was compared by the Mann–Whitney U test. To determine if P. vivax infection altered mosquito survivorship post-ivermectin ingestion survival data were analysed by the Mantel–Cox method. The Fishers Exact, Mann–Whitney U, and survival analysis data were analysed with Prism 7 (GraphPad Software Inc, San Diego, CA, USA).

Anopheles dirus [1] = test: as above; type: in vivo; settings: An. dirus
Protocol: as §1, §2, §3

Anopheles sawadwongporni = test: as above; type: in vivo; settings: An. sawadwongporni
Protocol: as §1, §2, §3

Anopheles dirus [2] = test: Effect of Plasmodium vivax infection on Anopheles dirus survivorship response to ivermectin; type: in vivo; settings: ivermectin LC25 co-ingested with parasites on DPI 0 vs ivermectin LC25 only; 14 days
Excerpt: Anopheles dirus were fed a P. vivax blood meal or a non-infectious blood meal prepared from uninfected donor blood and serum was replaced as described above. […] After blood feeding, 50 blood fed females from each treatment group were transferred to a new 0.5-l cardboard carton. Mosquito survivorship was monitored daily and dead mosquitoes were removed from the containers until day 14 post blood meal. Any live mosquitoes at day 14 were frozen and counted as alive. A separate group of mosquitoes were fed a P. vivax control blood meal to ensure that the P. vivax sample was infectious to mosquitoes and only isolates that successfully infected at least 80% of An. dirus were included in the results.
as §3, with “Oocyst and sporozoite prevalence (i.e. proportion of infected mosquitoes) was compared by Fishers Exact test. Oocyst intensity (i.e. number of oocysts per infected mosquito) was compared by the Mann–Whitney U test.” left out

An. gambiae [3] = system: An. gambiae; design: method as in PMID 20540931; settings: cited from earlier work
An. gambiae [4] = settings: ivermectin MDAs in Senegal at 150 µg/kg, for up to 6 days post MDA; cited from earlier work
[5] = design: method as in earlier work; settings: humans, n = 4; cited from earlier work
[6] = single dose of 800 µg/kg, literature parameters of American healthy volunteers; cited from earlier work
P. falciparum = settings: cited from earlier work

ivermectin
LC5 (Anopheles campestris; 7 days post blood meal): 11.7 ng/mL
LC25 (Anopheles campestris; 7 days post blood meal): 0.0189 mg/L
LC50 (Anopheles campestris; 7 days post blood meal): 0.0264 mg/L
IRR (Incidence Rate Ratio of mortality at day 7, treatment group divided by control group) (Anopheles campestris; ivermectin imbibed 3 ng/ml): 0.8
IRR (Incidence Rate Ratio of mortality at day 7, treatment group divided by control group) (Anopheles campestris; ivermectin imbibed 4 ng/ml): 1.7
IRR (Incidence Rate Ratio of mortality at day 7, treatment group divided by control group) (Anopheles campestris; ivermectin imbibed 5 ng/ml): 1.4
IRR (Incidence Rate Ratio of mortality at day 7, treatment group divided by control group) (Anopheles campestris; ivermectin imbibed 6 ng/ml): 1.0
IRR (Incidence Rate Ratio of mortality at day 7, treatment group divided by control group) (Anopheles campestris; ivermectin imbibed 8 ng/ml): 1.2
IRR (Incidence Rate Ratio of mortality at day 7, treatment group divided by control group) (Anopheles campestris; ivermectin imbibed 10 ng/ml): 1.0
IRR (Incidence Rate Ratio of mortality at day 7, treatment group divided by control group) (Anopheles campestris; ivermectin imbibed 15 ng/ml): 1.8
IRR (Incidence Rate Ratio of mortality at day 7, treatment group divided by control group) (Anopheles campestris; ivermectin imbibed 18 ng/ml): 2.7
IRR (Incidence Rate Ratio of mortality at day 7, treatment group divided by control group) (Anopheles campestris; ivermectin imbibed 20 ng/ml): 2.5
IRR (Incidence Rate Ratio of mortality at day 7, treatment group divided by control group) (Anopheles campestris; ivermectin imbibed 22 ng/ml): 3.4
IRR (Incidence Rate Ratio of mortality at day 7, treatment group divided by control group) (Anopheles campestris; ivermectin imbibed 25 ng/ml): 3.4
IRR (Incidence Rate Ratio of mortality at day 7, treatment group divided by control group) (Anopheles campestris; ivermectin imbibed 30 ng/ml): 2.5
IRR (Incidence Rate Ratio of mortality at day 7, treatment group divided by control group) (Anopheles campestris; ivermectin imbibed 35 ng/ml): 2.5
IRR (Incidence Rate Ratio of mortality at day 7, treatment group divided by control group) (Anopheles campestris; ivermectin imbibed 45 ng/ml): 4.9
IRR (Incidence Rate Ratio of mortality at day 7, treatment group divided by control group) (Anopheles campestris; ivermectin imbibed 50 ng/ml): 5.3
LC5 (Anopheles dirus [1]; 7 days post blood meal): 22.1 ng/mL
LC25 (Anopheles dirus [1]; 7 days post blood meal): 0.0381 mg/L
LC50 (Anopheles dirus [1]; 7 days post blood meal): 0.0556 mg/L
IRR (Incidence Rate Ratio of mortality at day 7, treatment group divided by control group) (Anopheles dirus [1]; ivermectin imbibed 20 ng/ml): 2.8
IRR (Incidence Rate Ratio of mortality at day 7, treatment group divided by control group) (Anopheles dirus [1]; ivermectin imbibed 25 ng/ml): 8.2
IRR (Incidence Rate Ratio of mortality at day 7, treatment group divided by control group) (Anopheles dirus [1]; ivermectin imbibed 30 ng/ml): 4.7
IRR (Incidence Rate Ratio of mortality at day 7, treatment group divided by control group) (Anopheles dirus [1]; ivermectin imbibed 35 ng/ml): 24.4
IRR (Incidence Rate Ratio of mortality at day 7, treatment group divided by control group) (Anopheles dirus [1]; ivermectin imbibed 40 ng/ml): 19.1
IRR (Incidence Rate Ratio of mortality at day 7, treatment group divided by control group) (Anopheles dirus [1]; ivermectin imbibed 45 ng/ml): 21.4
IRR (Incidence Rate Ratio of mortality at day 7, treatment group divided by control group) (Anopheles dirus [1]; ivermectin imbibed 50 ng/ml): 32.3
IRR (Incidence Rate Ratio of mortality at day 7, treatment group divided by control group) (Anopheles dirus [1]; ivermectin imbibed 55 ng/ml): 29.6
IRR (Incidence Rate Ratio of mortality at day 7, treatment group divided by control group) (Anopheles dirus [1]; ivermectin imbibed 60 ng/ml): 36.1
IRR (Incidence Rate Ratio of mortality at day 7, treatment group divided by control group) (Anopheles dirus [1]; ivermectin imbibed 65 ng/ml): 44.5
IRR (Incidence Rate Ratio of mortality at day 7, treatment group divided by control group) (Anopheles dirus [1]; ivermectin imbibed 70 ng/ml): 42.5
IRR (Incidence Rate Ratio of mortality at day 7, treatment group divided by control group) (Anopheles dirus [1]; ivermectin imbibed 80 ng/ml): 46.8
IRR (Incidence Rate Ratio of mortality at day 7, treatment group divided by control group) (Anopheles dirus [1]; ivermectin imbibed 85 ng/ml): 55.7
IRR (Incidence Rate Ratio of mortality at day 7, treatment group divided by control group) (Anopheles dirus [1]; ivermectin imbibed 95 ng/ml): 58.1
IRR (Incidence Rate Ratio of mortality at day 7, treatment group divided by control group) (Anopheles dirus [1]; ivermectin imbibed 100 ng/ml): 64.3
LC5 (Anopheles sawadwongporni; 7 days post blood meal): 16.1 ng/mL
LC25 (Anopheles sawadwongporni; 7 days post blood meal): 0.0218 mg/L
LC50 (Anopheles sawadwongporni; 7 days post blood meal): 0.0269 mg/L
IRR (Incidence Rate Ratio of mortality at day 7, treatment group divided by control group) (Anopheles sawadwongporni; ivermectin imbibed 4 ng/ml): 0.3
IRR (Incidence Rate Ratio of mortality at day 7, treatment group divided by control group) (Anopheles sawadwongporni; ivermectin imbibed 5 ng/ml): 1.3
IRR (Incidence Rate Ratio of mortality at day 7, treatment group divided by control group) (Anopheles sawadwongporni; ivermectin imbibed 6 ng/ml): 0.3
IRR (Incidence Rate Ratio of mortality at day 7, treatment group divided by control group) (Anopheles sawadwongporni; ivermectin imbibed 8 ng/ml): 0.6
IRR (Incidence Rate Ratio of mortality at day 7, treatment group divided by control group) (Anopheles sawadwongporni; ivermectin imbibed 10 ng/ml): 1.1
IRR (Incidence Rate Ratio of mortality at day 7, treatment group divided by control group) (Anopheles sawadwongporni; ivermectin imbibed 12 ng/ml): 0.9
IRR (Incidence Rate Ratio of mortality at day 7, treatment group divided by control group) (Anopheles sawadwongporni; ivermectin imbibed 15 ng/ml): 2.1
IRR (Incidence Rate Ratio of mortality at day 7, treatment group divided by control group) (Anopheles sawadwongporni; ivermectin imbibed 18 ng/ml): 2.1
IRR (Incidence Rate Ratio of mortality at day 7, treatment group divided by control group) (Anopheles sawadwongporni; ivermectin imbibed 20 ng/ml): 2.7
IRR (Incidence Rate Ratio of mortality at day 7, treatment group divided by control group) (Anopheles sawadwongporni; ivermectin imbibed 22 ng/ml): 2.3
IRR (Incidence Rate Ratio of mortality at day 7, treatment group divided by control group) (Anopheles sawadwongporni; ivermectin imbibed 25 ng/ml): 5.3
IRR (Incidence Rate Ratio of mortality at day 7, treatment group divided by control group) (Anopheles sawadwongporni; ivermectin imbibed 28 ng/ml): 5.2
IRR (Incidence Rate Ratio of mortality at day 7, treatment group divided by control group) (Anopheles sawadwongporni; ivermectin imbibed 30 ng/ml): 8.0
IRR (Incidence Rate Ratio of mortality at day 7, treatment group divided by control group) (Anopheles sawadwongporni; ivermectin imbibed 35 ng/ml): 8.4
IRR (Incidence Rate Ratio of mortality at day 7, treatment group divided by control group) (Anopheles sawadwongporni; ivermectin imbibed 40 ng/ml): 9.4
Effect of P. vivax infection on survivorship of An. dirus that ingested ivermectin (Anopheles dirus [2]): did not alter survivorship
An. gambiae 5-day-LC50 (An. gambiae [3]): 0.0224 mg/L
An. gambiae 5-day survivorship reduced by (An. gambiae [4]): 43.6%
Parent compound half-life [5]: 11.8 h
Simulated average peak concentration [6]: 108.1 ng/mL
Effect on P. falciparum oocyst intensity in An. gambiae (P. falciparum; LC25 or LC5 at DPI 0): no effect
Effect on oocyst prevalence of P. falciparum in An. gambiae (P. falciparum; ivermectin LC5 at DPI −3): reduced oocyst prevalence
Sporontocidal effect for P. falciparum in An. gambiae (P. falciparum; ivermectin LC25 at DPI 6 and 9): significant sporontocidal effect
Effect on P. falciparum prevalence in An. gambiae (P. falciparum; ivermectin LC25 ingested concomitantly (DPI 0)): significantly reduced
